Ends that are not written are not given here.
Experiments:
Assay type in all cases: cell-based
[1] = test system: PI3K; experiment: PI3K Western blot; conditions: human hair follicle dermal papilla cells, 15 and 30 minutes
Experimental: (§1) Human hair follicle dermal papilla cells were seeded at a density of 4×10^5 cells/well on 6-well plates, followed by incubation overnight. After changing into serum-free medium, the cells were treated with the peptides, followed by incubation for 15 and 30 minutes, and then the wells were harvested to prepare cell lysates. Western blotting was performed using PI3K antibodies (Santa Cruz Biotechnology, USA) and phospho-ERK antibody (Cell Signaling Technology, USA) to compare protein expression patterns.

[2] = test system: Bax; experiment: Bax Western blot; conditions: human hair follicle dermal papilla cells, 24 hours
Experimental: as §1, with “plate,” for “plates,”, “24 hours,” for “15 and 30 minutes,”, “Bcl-2 and Bax” for “PI3K”, “Biotechnology,” for “Biotechnology, USA) and phospho-ERK antibody (Cell Signaling Technology,”

[3] = test system: TGF-β1; experiment: TGF-β1 RT-PCR; conditions: human hair follicle dermal papilla cells, 24 hours
Experimental: (§2) Human hair follicle dermal papilla cells were seeded at a density of 4×10^5 cells/well on 6-well plates, followed by incubation overnight. After changing into serum-free medium, the cells were treated with the peptides, followed by incubation for 24 hours, and then the wells were harvested to separate RNA. After RNA quantification, cDNA synthesis was conducted using the cDNA synthesis kit (Intron, Korea), followed by PCR using PCR premix (Intron, Korea) and TGF-β1 primers, and then electrophoresis was performed on 5% agarose gel to compare the mRNA expression levels for each sample treatment conditions.

[4] = test system: ERK; experiment: p-ERK Western blot; conditions: human hair follicle dermal papilla cells, 15 and 30 minutes
Experimental: as §1

[5] = test system: Bcl-2; experiment: Bcl-2 Western blot; conditions: human hair follicle dermal papilla cells, 24 hours
Experimental: as §1, with “plate,” for “plates,”, “24 hours,” for “15 and 30 minutes,”, “Bcl-2 and Bax” for “PI3K”, “Biotechnology,” for “Biotechnology, USA) and phospho-ERK antibody (Cell Signaling Technology,”

[6] = test system: Human hair follicle dermal papilla cells; experiment: DPC proliferation assay (MTT); conditions: serum-free medium, 3 days incubation, absorbance 550 nm
Experimental: Human hair follicle dermal papilla cells were seeded at a density of 2×10^3 cells/well on 96-well plates, followed by incubation overnight. After changing into serum-free medium, the cells were treated with the peptides, followed by incubation for 3 days, and then the wells were treated with 4 mg/ml MTT solution, followed by reaction for 4 hours. The resulting formazan was solubilized with DNSO, and then the absorbance was measured at 550 nm using a microplate reader.

[7] = test system: β-catenin; experiment: β-Catenin activation test (Western blot of nuclear protein); conditions: human hair follicle dermal papilla cells, 15 and 30 minutes, Western blot of nuclei
Experimental: as §1, with “isolate nuclear and cytoplasmic proteins.” for “prepare cell lysates.”, “β-catenin” for “PI3K antibodies”, “USA)” for “USA) and phospho-ERK antibody (Cell Signaling Technology, USA)”, “β-catenin” for “protein”, “patterns in nuclei.” for “patterns.”

[8] = test system: bFGF; experiment: bFGF RT-PCR; conditions: human hair follicle dermal papilla cells, 24 hours
Experimental: as §2, with “isolate” for “separate”, “respective KGF, bFGF, and VEGF” for “TGF-β1”, “levels of the growth factors” for “levels”

[9] = test system: keratin-14; experiment: Keratin-14 RT-PCR; conditions: human hair follicle dermal papilla cells, 24 hours
Experimental: as §2, with “5×10^5” for “4×10^5”, “isolate” for “separate”, “keratin” for “TGF-β1”, “respective” for “each”

[10] = test system: KGF; experiment: KGF RT-PCR; conditions: human hair follicle dermal papilla cells, 24 hours
Experimental: as §2, with “isolate” for “separate”, “respective KGF, bFGF, and VEGF” for “TGF-β1”, “levels of the growth factors” for “levels”

[11] = test system: MSX2; experiment: MSX2 RT-PCR; conditions: human hair follicle dermal papilla cells, 24 hours
Experimental: as §2, with “isolate” for “separate”, “MSX2” for “TGF-β1”

[12] = test system: VEGF; experiment: VEGF RT-PCR; conditions: human hair follicle dermal papilla cells, 24 hours
Experimental: as §2, with “isolate” for “separate”, “respective KGF, bFGF, and VEGF” for “TGF-β1”, “levels of the growth factors” for “levels”

| Substance | PI3K expression [1] | expression of the apoptosis-related protein Bax [2] | mRNA expression of TGF-β1 [3] | ERK phosphorylation [4] | expression of the apoptosis inhibiting protein Bcl-2 [5] | growth of human hair follicle dermal papilla cells [6] | nuclear translocation due to the increase in activity of β-catenin [7] | mRNA expression of bFGF [8] | mRNA expression of keratin-14 [9] | mRNA expression of KGF [10] | mRNA expression of MSX2 [11] | mRNA expression of VEGF [12] |
| --- | --- | --- | --- | --- | --- | --- | --- | --- | --- | --- | --- | --- |
| Arg-Arg-Lys-Ile (RRKI) [SEQ ID NO: 1] | increase | decrease | inhibited | increase | increase | stimulated in a dose-dependent manner | stimulated | increased | increased | increased | – | – |
| Ile-Tyr-Phe-Tyr (IYFY) [SEQ ID NO: 2] | increase | – | inhibited | increase | – | stimulated in a dose-dependent manner | stimulated | – | – | – | stimulated | increased |
| KKFIQQVYLAI [SEQ ID NO: 3] | increase | decrease | – | increase | increase | stimulated in a dose-dependent manner | stimulated | increased | – | – | stimulated | increased |
